According to paper PMC8483441 (Journal of Medicinal Chemistry, 2021):
In brackets after ≈: the same amount, converted by molar mass. Read-outs that look alike come from different tables or passages of the source. Square brackets hold non-standard residues; d marks the D form. Ends that are not written are not given here. Peptide text beside a SMILES is read from it. Orn = NCCC[C@H](N)C(=O)O

Experiments:
[1] = system: E. coli; type: cell-based, Escherichia coli; details: 24 h
Protocol: (§1) Human serum was purchased from Sigma (St Louis, USA).
(§2) Incubations were kept at 37 °C for 24 h. Results are the average of three independent studies.

[2] = system: A. baumannii; type: cell-based, Acinetobacter baumannii; details: 24 h
Protocol: as §1, §2

[3] = system: Pseudomonas sp.; assay: MIC, broth microdilution; type: cell-based; details: Pseudomonas sp. ATCC 15915; Mueller-Hinton medium, 5 × 10^5 CFU/mL, 37 °C, 24 h; average of three independent studies
Protocol: as §1, §2

[4] = system: S. enterica; type: cell-based, Salmonella enterica; details: 24 h
Protocol: as §1, §2

[5] = system: S. flexneri; details: 24 h
From the text: Purified horse red blood cells were acquired from Thermo Fisher Scientific (Hampshire, England). Human serum was purchased from Sigma (St Louis, USA). E. coli was obtained from the Coli Genetic Stock Center (BW25113). S. flexneri (ATCC 29903), A. baumannii (ATCC 15308), Pseudomonas sp. (ATCC 15915), and S. enterica (ATCC 14028) were obtained from the CECT (Valencia, Spain). Clinical strains were supplied by the Vall d’Hebron Hospital (Barcelona, Spain). MRC5 fibroblasts were obtained from the Cytometry and Cell Culture Facility (SCAC, UAB) and originally purchased from ATCC.
The antibiotic activity was defined by the minimum peptide concentration where the microorganism is unable to grow. The assay was done in polypropylene 96-well plates (Greiner, Frickenhausen, Germany) to avoid peptide binding to plate wells. Peptides were dissolved in water containing 0.4% w/v bovine serum albumin (BSA) and 0.02% v/v glacial acetic acid to prevent self-aggregation, following the reference protocol by Wiegand et al.,[42] based on the classical microtiter broth dilution recommended by the […]. Initial bacteria inoculum was adjusted to 5 × 10^5 CFU/mL in Mueller-Hinton (MH) medium. Incubations were kept at 37 °C for 24 h. Results are the average of three independent studies. MIC assays in the presence of serum were performed by incubating the peptide with human serum at a 1:1 ratio. Then, 10^6 cfu/mL of Pseudomonas sp. were incubated with serial dilutions of the peptides for 4 h. To determine the MBC, 50 μL from all wells were seeded into Petri plates and incubated for 24 h. The MBC concentration was attributed to the lowest concentration without detectable bacterial growth for each peptide.

[6] = system: horse red blood cells; assay: Hemolytic activity; type: cell-based
Protocol: The peptide toxicity was determined detecting the disruption of horse red blood cells, following a previous assay report.[35] 10-fold diluted cells in PBS were centrifuged three times at 800g to eliminate the hemoglobin from disrupted cells. After the last resuspension, erythrocytes were incubated with the peptides for 4 h at 37 °C. The detection was done measuring the supernatant absorbance in a VICTOR3 multilabel plate reader (Perkin Elmer, Waltham, Massachusetts) at 540 nm in a microplate reader. Percentage of hemolysis was calculated through a pattern done with dilutions of total cell lysis done with a 1% Triton X-100 buffer. Results are the average of three independent studies.

[7] = Cytotoxicity in mammalian cells (MTT assay); type: cell-based; details: MRC-5 cytotoxicity (IC50)
Protocol: (§3) MRC-5 cells were grown in Eagle’s minimum essential medium (MEMα), supplemented with 10% fetal bovine serum (FBS). 96-well plates were seeded with 3 × 10^4 cells/well and cultured overnight in order to get cells adhered into the plate and then incubated with two-fold peptide serial dilutions. After 4 h of incubation, the medium containing the peptides was replaced by MEMα supplemented with FBS and 3-(4,5-dimethylthiazol-2-yl)-2,5-diphenyltetrazolium bromide (MTT) at 0.4 mg/mL and incubated for 150 min. Detection of formazan crystals in the living cells was done by cell disruption by addition of 200 μL of dimethyl sulfoxide (DMSO) followed by absorbance measuring at 600 nm in a Tecan Infinite F Nano+ microplate reader (Tecan, Germany). Results are the average of three independent studies.

[8] = system: MRC-5 cells; assay: Cytotoxicity in mammalian cells (MTT assay); type: cell-based
Protocol: as §3

[9] = system: Acinetobacter baumannii; type: cell-based; details: 24 h
Protocol: as §2

[10] = system: Escherichia coli; type: cell-based; details: 24 h
Protocol: as §2

[11] = system: Salmonella enterica; type: cell-based; details: 24 h
Protocol: as §2

[12] = system: Pseudomonas sp.; assay: Minimum bactericidal concentration (MBC); type: cell-based; details: 50 μL from MIC wells seeded into Petri plates, 24 h; lowest concentration without detectable growth
Protocol: as §2

[13] = system: Pseudomonas sp.; assay: MIC of peptides incubated with human serum; type: cell-based; details: peptide incubated with human serum 1:1; 10^6 cfu/mL Pseudomonas sp., 4 h
Protocol: as §2

[14] = system: Shigella flexneri; details: 50 μL from MIC wells seeded into Petri plates, 24 h; lowest concentration without detectable growth
Protocol: The antibiotic activity was defined by the minimum peptide concentration where the microorganism is unable to grow. The assay was done in polypropylene 96-well plates (Greiner, Frickenhausen, Germany) to avoid peptide binding to plate wells. Peptides were dissolved in water containing 0.4% w/v bovine serum albumin (BSA) and 0.02% v/v glacial acetic acid to prevent self-aggregation, following the reference protocol by Wiegand et al.,[42] based on the classical microtiter broth dilution recommended by the National Committee of Laboratory Safety and Standards (NCLSS). Initial bacteria inoculum was adjusted to 5 × 10^5 CFU/mL in Mueller-Hinton (MH) medium. Incubations were kept at 37 °C for 24 h. Results are the average of three independent studies. […] To determine the MBC, 50 μL from all wells were seeded into Petri plates and incubated for 24 h. The MBC concentration was attributed to the lowest concentration without detectable bacterial growth for each peptide.

[15] = system: A. baumannii 3862; assay: MIC, clinical bacterial strain; type: cell-based
Protocol: as §1, §2

[16] = system: A. baumannii 3878; assay: MIC, clinical bacterial strain; type: cell-based
Protocol: as §1, §2

[17] = system: A. baumannii 3879; assay: MIC, clinical bacterial strain; type: cell-based
Protocol: as §1, §2

[18] = system: A. baumannii 3880; assay: MIC, clinical bacterial strain; type: cell-based
Protocol: as §1, §2

[19] = system: E. coli 116878; assay: MIC, clinical bacterial strain; type: cell-based
Protocol: as §1, §2

[20] = system: E. coli cf073; assay: MIC, clinical bacterial strain; type: cell-based
Protocol: as §1, §2

[21] = system: P. aeruginosa 827632; assay: MIC, clinical bacterial strain; type: cell-based
Protocol: as §1, §2

[22] = system: P. aeruginosa 827651; assay: MIC, clinical bacterial strain; type: cell-based
Protocol: as §1, §2

[23] = system: S. typhimurium 324; assay: MIC, clinical bacterial strain; type: cell-based
Protocol: as §1, §2

[24] = system: S. typhimurium 365; assay: MIC, clinical bacterial strain; type: cell-based
Protocol: as §1, §2

Compound | MIC E. coli [1] [µM] | MIC A. baumannii [2] [µM] | MIC Pseudomonas sp. [3] [µM] | MIC S. enterica [4] [µM] | MIC S. flexneri [5] [µM] | hemolysis % (250 μM peptide) ([6]; red cells of horse, 4 h, 250) [%] | IC50 [7] [µM] | MBC Acinetobacter baumannii [9] [µM] | MBC Escherichia coli [10] [µM] | MBC Salmonella enterica [11] [µM] | MBC Pseudomonas sp. [12] [µM] | MIC in Pseudomonas sp., peptides incubated with human serum [13] [µM] | MBC Shigella flexneri [14] [µM] | MIC A. baumannii 3862 [15] [µM] | MIC A. baumannii 3878 [16] [µM] | MIC A. baumannii 3879 [17] [µM] | MIC A. baumannii 3880 [18] [µM] | MIC E. coli 116878 [19] [µM] | MIC E. coli cf073 [20] [µM] | MIC P. aeruginosa 827632 [21] [µM] | also measured
CC[C@H](C)[C@H](NC(=O)[C@H](C)NC(=O)[C@H](CCCN)NC(=O)[C@H](CCSC)NC(=O)[C@H](C)NC(=O)[C@@H](NC(=O)[C@@H](NC(=O)[C@H](CCCN)NC(=O)[C@@H]1CCCN1C(=O)[C@H](CO)NC(=O)[C@@H](NC(=O)[C@H](Cc1c[nH]cn1)NC(=O)[C@H](CCC(N)=O)NC(=O)[C@@H](NC(=O)[C@H](C)NC(=O)[C@H](Cc1ccccc1)NC(=O)[C@H](Cc1c[nH]c2ccccc12)NC(=O)[C@H](CCC(N)=O)NC(=O)[C@H](C)NC(=O)[C@H](CCCN)NC(=O)[C@@H](NC(=O)[C@H](Cc1ccccc1)NC(=O)[C@@H]1CCCN1C(=O)[C@@H](N)CCCN)[C@@H](C)O)[C@@H](C)CC)[C@@H](C)CC)[C@@H](C)O)[C@@H](C)CC)C(=O)N[C@@H](CC(N)=O)C(=O)N[C@@H](CC(N)=O)C(=O)N[C@@H](Cc1ccc(O)cc1)C(=O)N[C@@H](CCCN)C(=O)N[C@@H](Cc1c[nH]c2ccccc12)C(=O)N[C@@H](CCCN)C(N)=O [peptide 2] (H-[Orn]PFT[Orn]AQWFAIQHISP[Orn]TIAM[Orn]AINNY[Orn]W[Orn]-NH2) | 6.25 (≈ 21.9 µg/mL) | 6.25 (≈ 21.9 µg/mL) | 6.25 (≈ 21.9 µg/mL) | 25 (≈ 87.6 µg/mL) | 12.5 (≈ 43.8 µg/mL) | 10 ± 2 | ≤ 180 | 6.25 (≈ 21.9 µg/mL) | 6.25 (≈ 21.9 µg/mL) | 25 (≈ 87.6 µg/mL) | 6.25 (≈ 21.9 µg/mL) | 50 | 12.5 (≈ 43.8 µg/mL) |  |  |  |  |  |  |  | hemolysis % (250 μM peptide) [6]: 10%; IC50 ([8]; 4 h): 113 ± 8 µM
CC[C@H](C)[C@H](NC(=O)[C@H](C)NC(=O)[C@H](CCCN)NC(=O)[C@H](CCSC)NC(=O)[C@H](C)NC(=O)[C@@H](NC(=O)[C@@H](NC(=O)[C@H](CCCN)NC(=O)[C@@H]1CCCN1C(=O)[C@H](CO)NC(=O)[C@@H](NC(=O)[C@H](Cc1c[nH]cn1)NC(=O)[C@H](CCC(N)=O)NC(=O)[C@@H](NC(=O)[C@H](C)NC(=O)[C@H](Cc1ccccc1)NC(=O)[C@H](Cc1c[nH]c2ccccc12)NC(=O)[C@H](CCC(N)=O)NC(=O)[C@H](C)NC(=O)[C@H](CCCN)NC(=O)[C@@H](NC(=O)[C@@H](N)Cc1ccccc1)[C@@H](C)O)[C@@H](C)CC)[C@@H](C)CC)[C@@H](C)O)[C@@H](C)CC)C(=O)N[C@@H](CC(N)=O)C(=O)N[C@@H](CC(N)=O)C(=O)N[C@@H](Cc1ccc(O)cc1)C(=O)N[C@@H](CCCN)C(=O)N[C@@H](Cc1c[nH]c2ccccc12)C(=O)N[C@@H](CCCN)C(N)=O [peptide 5] (H-FT[Orn]AQWFAIQHISP[Orn]TIAM[Orn]AINNY[Orn]W[Orn]-NH2) | 25 (≈ 82.3 µg/mL) | >100 | 25 (≈ 82.3 µg/mL) | >100 | 50 (≈ 165 µg/mL) | 11 ± 4 | > 300 | > 100 | 25 (≈ 82.3 µg/mL) | > 100 | 25 (≈ 82.3 µg/mL) |  | 50 (≈ 165 µg/mL) |  |  |  |  |  |  |  | MRC-5 cytotoxicity (IC50) [8]: No toxicity was detected
RPFTRAQWFAIQHISPRTIAMRAINNYRWR-NH2 [peptide 1, hECP30] | 1.56 |  | 1.56 | 12.5 | 3.13 |  | 23 ± 4 |  | 1.56 | 12.5 | 1.56 | 25 | 3.13 | 0.78 | 1.56 | 1.56 | 1.56 | 6.25 | 3.13 | 12.5 | MIC A. baumannii ([2]; A. baumannii ATCC 15308, Mueller-Hinton medium, 5 × 10^5 CFU/mL, 37 °C, average of three independent studies): 1.56 µM; hemolytic activity at 10-fold the MIC ([6]; red cells of horse, 4 h): below 10%; MIC P. aeruginosa 827651 [22]: 25 µM; MIC S. typhimurium 324 [23]: 6.25 µM; MIC S. typhimurium 365 [24]: 6.25 µM; MBC Acinetobacter baumannii ([9]; 50 μL from MIC wells seeded into Petri plates, lowest concentration without detectable growth): 1.56 µM
CC[C@H](C)[C@H](NC(=O)[C@H](C)NC(=O)[C@H](CCCN)NC(=O)[C@H](CCSC)NC(=O)[C@H](C)NC(=O)[C@@H](NC(=O)[C@@H](NC(=O)[C@H](CCCN)NC(=O)[C@@H]1CCCN1C(=O)[C@H](CO)NC(=O)[C@@H](NC(=O)[C@H](Cc1c[nH]cn1)NC(=O)[C@H](CCC(N)=O)NC(=O)[C@@H](NC(=O)[C@H](C)NC(=O)[C@H](Cc1ccccc1)NC(=O)[C@H](Cc1c[nH]c2ccccc12)NC(=O)[C@H](CCC(N)=O)NC(=O)[C@H](C)NC(=O)[C@H](CCCN)NC(=O)[C@@H](NC(=O)[C@H](Cc1ccccc1)NC(=O)[C@H]1CCCN1C(=O)[C@@H](N)CCCN)[C@@H](C)O)[C@@H](C)CC)[C@@H](C)CC)[C@@H](C)O)[C@@H](C)CC)C(=O)N[C@@H](CC(N)=O)C(=O)N[C@@H](CC(N)=O)C(=O)N[C@@H](Cc1ccc(O)cc1)C(=O)N[C@@H](CCCN)C(=O)N[C@@H](Cc1c[nH]c2ccccc12)C(=O)N[C@@H](CCCN)C(N)=O [peptide 6] (H-[Orn][dP]FT[Orn]AQWFAIQHISP[Orn]TIAM[Orn]AINNY[Orn]W[Orn]-NH2) | 3.13 (≈ 11 µg/mL) | 12.5 (≈ 43.8 µg/mL) | 1.56 (≈ 5.47 µg/mL) | 50 (≈ 175 µg/mL) | 50 (≈ 175 µg/mL) | 1.1 ± 0.9 | 230 ± 40 | 12.5 (≈ 43.8 µg/mL) | 3.13 (≈ 11 µg/mL) | 50 (≈ 175 µg/mL) | 1.56 (≈ 5.47 µg/mL) |  | 50 (≈ 175 µg/mL) | 1.56 (≈ 5.47 µg/mL) | 0.78 (≈ 2.73 µg/mL) | 3.13 (≈ 11 µg/mL) | 12.5 (≈ 43.8 µg/mL) | 25 (≈ 87.6 µg/mL) | 6.25 (≈ 21.9 µg/mL) | >100 | MIC P. aeruginosa 827651 [22]: 25 µM (≈ 87.6 µg/mL); MIC S. typhimurium 324 [23]: 25 µM (≈ 87.6 µg/mL); MIC S. typhimurium 365 [24]: 25 µM (≈ 87.6 µg/mL)
